The text below walks through data of patent EP0509470A2, “Therapeutical compositions having anti-HIV activity consisting of 2',3'-didesoxyadenosine and substances inhibiting adenosine deaminase” (REPLA CHEMICAL LTD., priority 1991, dated 1992).

Common to all, as to format: cell-based
Data set [1] relates to HIV-1. Briefly: Inhibition of infecting HIV production in MT4 cells (end point titration). As to conditions: for EC90 / enhancement of the anti-HIV-1 activity of ddAdo (10 µM): MT4 cells; for EC90: compound alone, Table 2, read-out: ED90 (the source's name); for enhancement of the anti-HIV-1 activity of ddAdo (10 µM): compound used at its MNTD together with ddAdo 10 µM, Fig. 1. As to the method: (§1) The cellular lines utilized in this study were: H9, T lymphocytes, CD4+, permissive for the HIV replication but partially resistant to its cytopathic effect; • H9/IIIB, H9 lymphocytes chronically infected by HTLV/IIIB virus; • MT4 and C8166, T lymphocytes lines, CD4+ permissive for HIV replication. In C8166 the virus induces a cytopathic effect which results in the formation of syncytia easily visible at the optical microscope.
(§2) All the lymphoid lines were cultured in RPMI 1640 containing 10 % of non decomplemented fetal calf serum (FCS), penicillin 100U/mL and streptomycin 100 µg/mL and incubated at 37 °C in 5% CO₂.
(§3) HIV virus was obtained by H9/IIIB cells surnatant taken at the end of their exponential growth.
(§4) The titre of several stock preparations was comprised between 2 and 5 x 10⁵ Cell Culture Infection Dose 50 (CCID50)/mL.
(§5) For the evaluation of the anti-HIV activity the inhibition of infecting HIV production was determined as follows.
(§6) C8166 or MT4 cells sown at a density of 1 x 10⁶ cells/ml, were infected with a multiplicity of infection (m.o.i.) comprised between 0.05 and 0.02 CCID50/cell. After two hours of incubation at 37 °C and subsequent removal of the inoculum, the cells were washed three times and resuspended at a density of 1 x 10⁵ cells/ml. in the absence or in the presence of the compounds to be investigated.
(§7) After 4 days of incubation at 37 °C the presence of syncytia was evaluated at the optical microscope and the quantity of infecting HIV present in the surnatant of the cultures was determined by end point titration.
(§8) HIV titration was carried out in C8166 cells sown at a density of 1 x 10⁵ cells/mL/well, by the limit dilution method (dilution ratio 1:2, every dilution being sown in quadruplicate).
(§9) After four days of incubation, the syncytia presence was evaluated at the microscope and the viral titre was calculated by the Reed and Muench method.

The nature of data set [2]: Cytotoxicity evaluation (cell number in Coulter after 96 hours). The following applies: human; for MNTC at 96 h: MNTD. The method, then: as §1, §2
For the cytotoxicity evaluation, the cells were resuspended in a culture medium at a density of 1 x 10⁵/mL, were incubated in the absence or in the presence of various concentration of the compounds to be studied and their number was determined in Coulter after 96 hours of incubation at 37 °C.

Data set [3] relates to HIV-1. Briefly: Inhibition of infecting HIV production in C8166 cells (end point titration). The following applies: for EC90: C8166 cells, compound alone, Table 2, read-out: ED90 (the source's name). As to the method: as §1, §2, §3, §4, §5, §6, §7, §8, §9

SMILES strings stand for the structures.

For orientation: CC50 means the concentration giving 50% cytotoxicity. Read a low CC50 as harm at low concentration. As to `CCCCCC[C@H]([C@H](C)O)n1cnc2c(N)cccc21` (relative stereo) [1,3-dideaza-EHNA], the EC90 with HIV-1 [1] is above 5 µM. In data set [2] (mt4 cells), the midpoint of cytotoxicity, the CC50 at 96 h, lay at 15 µM and the MNTC at 96 h is 5 µM.
For `CCCCCC[C@H]([C@H](C)O)n1cnc2c(N)ccnc21` (relative stereo) [1-deaza-EHNA] the same measures were 20 µM, 75 µM and 20 µM.
In the case of `CCCCCC[C@H]([C@H](C)O)n1cnc2c(N)nccc21` (relative stereo) [3-deaza-EHNA], in the data set with HIV-1 [1], the EC90 is above 10 µM and the “enhancement of the anti-HIV-1 activity of ddAdo (10 µM)” value is “highest enhancing effect”. In data set [2] (mt4 cells), this molecule yielded a CC50 at 96 h of 30 µM and an MNTC at 96 h of 10 µM.
For `CCCCCC[C@H]([C@H](C)O)n1ccc2c(N)ncnc21` (relative stereo) [7-deaza-EHNA], in the data set on HIV-1 [1], the EC90 is above 5 µM. In data set [2] (mt4 cells), it took 50 µM to reach half-maximal cytotoxicity (CC50 at 96 h) and the MNTC at 96 h was 5 µM.
For `CCCCCC[C@H]([C@H](C)O)n1cnc2c(N)ncnc21` (relative stereo) [EHNA, 9-(erythro-2-hydroxy-3-nonyl) adenine], the EC90 in the data set on HIV-1 [3] was above 15 µM. Also, the “lowest concentration enhancing ddAdo anti-HIV activity, relative to its MNTD” value in the data set with HIV-1 [3] (EHNA with ddAdo, C8166) worked out at 250 times lower. Further, in the data set on HIV-1 [1], the EC90 was above 10 µM and the “enhancement of the anti-HIV-1 activity of ddAdo (10 µM)” value is listed as “highest enhancing effect”. In data set [2] (c8166 cells), this molecule had a CC50 at 96 h of 25 µM and an MNTC at 96 h of 15 µM. Further, in data set [2] (mt4 cells), the midpoint of cytotoxicity, the CC50 at 96 h, lay at 35 µM and the MNTC at 96 h was determined as 10 µM.
As to `OC[C@H]1O[C@@H](n2cnc3c2N=CNC[C@H]3O)[C@H](O)[C@@H]1O` [CF, coformycin], the EC90 in the data set with HIV-1 [3] and in the data set on HIV-1 [1] was above 250 µM each time. The “lowest concentration enhancing ddAdo anti-HIV activity, relative to its MNTD” value in the data set on HIV-1 [1] (CF with ddAdo, MT4) is recorded as “more than 12500 times lower”. Besides, the CC50 at 96 h in data set [2] (c8166 cells) and in data set [2] (mt4 cells) was above 250 µM in each case. The MNTC at 96 h in data set [2] (c8166 cells) and in data set [2] (mt4 cells) was above 250 µM throughout. The MCC at 96 h in data set [2] (cell line not specified, read-out: cytotoxic concentration) is 250 µM.
